Literature values as cited in patent US6420378B1, “Inhibition of abnormal cell proliferation with camptothecin and combinations including the same” (priority 1999, dated 2002).

How the values were obtained:
[1] = test system: nontumorigenic human cells; details: in vitro
tumorigenic human cells = details: in vitro
[2] = clinical trials, administered intravenously
[3] = test system: human colon cancer xenografts; details: mouse, in vivo

CC[C@@]1(O)C(=O)OCc2c1cc1n(c2=O)Cc2cc3ccccc3nc2-1 [20(S)-camptothecin]
effect on nontumorigenic cells [1]: cytostatic
effect on tumorigenic cells (tumorigenic human cells): cytotoxic

CC[C@@](O)(C(=O)[O-])c1cc2n(c(=O)c1CO)Cc1cc3ccccc3nc1-2.[Na+] [20(S)-camptothecin Na+]
potency [2]: low potency
toxicity [2]: high toxicity

CC[C@@]1(O)C(=O)OCc2c1cc1n(c2=O)Cc2cc3c(N)cccc3nc2-1 [9AC, 9-Amino-20(S)-Camptothecin]
anticancer activity against human colon cancer xenografts [3]: high anticancer activity

CC[C@@]1(O)C(=O)OCc2c1cc1n(c2=O)Cc2cc3c([N+](=O)[O-])cccc3nc2-1 [9NC, 9-nitrocamptothecin]
growth of human tumor xenografts (human tumor xenografts; immunodeficient nude mice): inhibited the growth
activity against human tumor xenograft models (human tumor xenografts; mouse, in vivo): high activity
regression of human tumors established as xenografts (human tumor xenografts; nude mice): induced regression

CC[C@@]1(O)C(=O)OCc2c1cc1n(c2=O)Cc2cc3cc4c(cc3nc2-1)OCO4 [10,11 MD, 10,11-Methylendioxy-20(S)-Camptothecin]
anticancer activity against human colon cancer xenografts [3]: high anticancer activity
